Some test systems named below: NCI-H522 lung; K-562 leukemia; RPMI-8226 leukemia; SF-268 CNS; SF-539 CNS; HOP-92 NSCLC; NCI-H23 lung; MCF7 breast; SW-620 colon; CCRF-CEM leukemia; MALME-3M melanoma.
Common to all, as to assay: growth of human tumour cells (NCI), 48 h

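Cultured in 96-well plates, cells were exposed to test compound for 48 hours across five concentrations. TGI marks complete inhibition of growth.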

As for `COC1Cc2c(C)c(OC(C)=O)c3cccnc3c2O1` (configuration not stated), the TGI with NCI-H522 lung is 13.6 µM; with K-562 leukemia it was 86 µM; in the experiment on RPMI-8226 leukemia it was more than 100 µM; in the experiment with SF-268 CNS, 34 µM; with SF-539 CNS, more than 100 µM; with HOP-92 NSCLC, 33.8 µM. In addition, the TGI is 36.3 µM with NCI-H23 lung; 39.7 µM in the experiment with MCF7 breast; 27.9 µM with SW-620 colon; 34.1 µM in the experiment on CCRF-CEM leukemia; 31.9 µM in the experiment on MALME-3M melanoma.

As for `COc1cccc2c1C(=O)C(=O)c1c-2oc(=O)c2cc(C)cc(OC)c12`, the TGI is 26.5 µM in the experiment on NCI-H522 lung; more than 75 µM in the experiment on K-562 leukemia; 62.4 µM in the experiment on RPMI-8226 leukemia; 41.8 µM in the experiment with SF-268 CNS; more than 75 µM with SF-539 CNS; more than 75 µM in the experiment with HOP-92 NSCLC. The TGI with NCI-H23 lung is 58.4 µM; in the experiment with MCF7 breast, 72.5 µM; with SW-620 colon, more than 75 µM; in the experiment with CCRF-CEM leukemia, more than 75 µM; with MALME-3M melanoma, more than 75 µM.

For the compound `C=C(Cl)C(C)(Cl)CCC(Cl)C(C)(C)Cl` (configuration not stated), the TGI with NCI-H522 lung was 56.3 µM; in the experiment on K-562 leukemia it was more than 100 µM; in the experiment on RPMI-8226 leukemia it was 48.7 µM; in the experiment with SF-268 CNS, more than 100 µM; with SF-539 CNS, more than 100 µM; with HOP-92 NSCLC it was more than 100 µM. In addition, the TGI in the experiment on NCI-H23 lung, with MCF7 breast, with SW-620 colon, in the experiment on CCRF-CEM leukemia and in the experiment on MALME-3M melanoma was more than 100 µM in each case.

`O=C(O)c1ccc(Nc2ccnc3cc(Cl)ccc23)cc1O`: the TGI in the experiment with NCI-H522 lung was more than 100 µM; in the experiment with K-562 leukemia, more than 100 µM; in the experiment on RPMI-8226 leukemia it was more than 100 µM; with SF-268 CNS, more than 100 µM; in the experiment with SF-539 CNS it was 88.7 µM; with HOP-92 NSCLC, more than 100 µM. Moreover, the TGI with NCI-H23 lung, in the experiment with MCF7 breast, in the experiment on SW-620 colon, with CCRF-CEM leukemia and in the experiment with MALME-3M melanoma was more than 100 µM each time.

As to `CCCCCCCC/C=C\CCCCCCCCNc1ccn(C2OC(COP(=O)(O)OC3CC(n4cc(F)c(=O)[nH]c4=O)OC3CO)C(O)C2O)c(=O)n1` (configuration not stated), the TGI with NCI-H522 lung was more than 100 µM; with K-562 leukemia, more than 100 µM; in the experiment with RPMI-8226 leukemia, more than 100 µM; in the experiment on SF-268 CNS it was more than 100 µM; in the experiment on SF-539 CNS, 5.16 µM; in the experiment on HOP-92 NSCLC, more than 100 µM. The TGI in the experiment on NCI-H23 lung was more than 30.3 µM; with MCF7 breast it was more than 100 µM; in the experiment with SW-620 colon it was more than 100 µM; in the experiment with CCRF-CEM leukemia, 17.9 µM; in the experiment on MALME-3M melanoma, more than 100 µM.

As for `NCC(=O)C(O)C(O)C(O)CO` (configuration not stated), the TGI in the experiment on NCI-H522 lung, in the experiment on K-562 leukemia, with RPMI-8226 leukemia, in the experiment with SF-268 CNS, in the experiment on SF-539 CNS and in the experiment with HOP-92 NSCLC was more than 100 µM throughout. Also, the TGI in the experiment on NCI-H23 lung, in the experiment on MCF7 breast, in the experiment on SW-620 colon, in the experiment with CCRF-CEM leukemia and in the experiment on MALME-3M melanoma was more than 100 µM throughout.

For `CCOC(=O)Cn1c(=O)c2nc(SC)sc2n(-c2ccc(C)cc2)c1=S`, the TGI in the experiment with NCI-H522 lung is more than 100 µM; in the experiment on K-562 leukemia, more than 100 µM; in the experiment on RPMI-8226 leukemia, more than 100 µM; with SF-268 CNS, more than 89.2 µM; in the experiment on SF-539 CNS, more than 75 µM; with HOP-92 NSCLC it was 68.1 µM. Also, the TGI is more than 89.5 µM with NCI-H23 lung; more than 100 µM with MCF7 breast; more than 100 µM in the experiment on SW-620 colon; more than 100 µM in the experiment on CCRF-CEM leukemia; more than 92 µM with MALME-3M melanoma.

For `CCCCCCCC1c2cc3[nH]c(cc4nc(cc5[nH]c(cc(n2)[C@@]1(C)CC(=O)N(C)C)c(C)c5CCC(=O)O)C(CCC(=O)O)=C4C)cc3C` (some centres not stated), the TGI in the experiment with NCI-H522 lung is 37.8 µM; in the experiment with K-562 leukemia, 56.7 µM; in the experiment with RPMI-8226 leukemia, 47.7 µM; in the experiment with SF-268 CNS, 42.9 µM; in the experiment on SF-539 CNS, 34.2 µM; in the experiment with HOP-92 NSCLC, 43.8 µM. Moreover, the TGI is 34.1 µM with NCI-H23 lung; 92.3 µM with MCF7 breast; more than 100 µM in the experiment on SW-620 colon; 42.6 µM with CCRF-CEM leukemia; 39 µM in the experiment with MALME-3M melanoma.

As to `C[C@]12CC[C@@H]3c4ccc(OC(=O)c5ccccc5)cc4CC[C@H]3[C@@H]1CCC2OC(=O)c1cccc2c(=O)c3ccccc3[nH]c12` (some centres not stated), the TGI in the experiment with NCI-H522 lung was 45.2 µM; with K-562 leukemia, more than 100 µM; in the experiment on RPMI-8226 leukemia, more than 100 µM; in the experiment on SF-268 CNS, 44.9 µM; with SF-539 CNS, 35.6 µM; with HOP-92 NSCLC, 34.9 µM. The TGI in the experiment with NCI-H23 lung is 48.3 µM; in the experiment on MCF7 breast, 30.2 µM; with SW-620 colon, 24.5 µM; in the experiment with CCRF-CEM leukemia, more than 100 µM; with MALME-3M melanoma it was 46.8 µM.

Consider `CC1CCCOc2ccc(cc2)C=Nc2ccc(cc2)CCc2ccc(cc2)N=Cc2ccc(cc2)OCCC1` (configuration not stated), for which the TGI in the experiment with NCI-H522 lung, with K-562 leukemia, with RPMI-8226 leukemia, in the experiment with SF-268 CNS, in the experiment on SF-539 CNS and with HOP-92 NSCLC was more than 100 µM in each case. Besides, the TGI in the experiment with NCI-H23 lung, in the experiment with MCF7 breast, with SW-620 colon, in the experiment on CCRF-CEM leukemia and in the experiment with MALME-3M melanoma was more than 100 µM in each case.

Turning to `CCOC(=O)c1sc2nc(SC)nc(Nc3ccc4c(c3)OCCCO4)c2c1N`, the TGI in the experiment on NCI-H522 lung is 37.2 µM; in the experiment with K-562 leukemia, more than 100 µM; in the experiment on RPMI-8226 leukemia, more than 100 µM; with SF-268 CNS, more than 100 µM; in the experiment with SF-539 CNS it was more than 100 µM; in the experiment with HOP-92 NSCLC, more than 100 µM. The TGI with NCI-H23 lung is more than 100 µM; with MCF7 breast, more than 100 µM; with SW-620 colon it was more than 100 µM; in the experiment with CCRF-CEM leukemia it was more than 100 µM; with MALME-3M melanoma, 80.7 µM.

With `N#Cc1c(C#N)c(-c2cccc([N+](=O)[O-])c2)n(-c2ccccc2)c1N`, the TGI in the experiment on NCI-H522 lung, with K-562 leukemia, in the experiment with RPMI-8226 leukemia, in the experiment with SF-268 CNS, in the experiment with SF-539 CNS and in the experiment on HOP-92 NSCLC was more than 100 µM throughout. Besides, the TGI with NCI-H23 lung, in the experiment with MCF7 breast, in the experiment on SW-620 colon, with CCRF-CEM leukemia and in the experiment on MALME-3M melanoma was more than 100 µM in each case.

The values above are taken from PubChem BioAssay (NCI).
